Article PMC7778552, “A Double-Edged Sword: The Anti-Cancer Effects of Emodin by Inhibiting the Redox-Protective Protein MTH1 and Augmenting ROS in NSCLC” (Journal of Cancer, 2021)

Target: T1, MutT homolog 1 (MTH1) (Homo sapiens, UniProt P36639)
T1 construct: gene NUDT1; N-terminal His-tagged, expressed in E. coli BL21-codon plus
Experiment: SPR with immobilized purified MTH1 (amine coupling)
Format: binding

Q: `Cc1cc(O)c2c(c1)C(=O)c1cc(O)cc(O)c1C2=O` [emodin, 1,3,8-trihydroxy-6-methylanthraquinone] was tested. Which Kd did it give?
A: The Kd was 22.2 ± 0.68 µM.
